Target: T1, IRAK4 enzyme (Homo sapiens, UniProt Q9NWZ3)
T1 construct: purchased Promega V2621
T1 sequence (Q9NWZ3 1-460): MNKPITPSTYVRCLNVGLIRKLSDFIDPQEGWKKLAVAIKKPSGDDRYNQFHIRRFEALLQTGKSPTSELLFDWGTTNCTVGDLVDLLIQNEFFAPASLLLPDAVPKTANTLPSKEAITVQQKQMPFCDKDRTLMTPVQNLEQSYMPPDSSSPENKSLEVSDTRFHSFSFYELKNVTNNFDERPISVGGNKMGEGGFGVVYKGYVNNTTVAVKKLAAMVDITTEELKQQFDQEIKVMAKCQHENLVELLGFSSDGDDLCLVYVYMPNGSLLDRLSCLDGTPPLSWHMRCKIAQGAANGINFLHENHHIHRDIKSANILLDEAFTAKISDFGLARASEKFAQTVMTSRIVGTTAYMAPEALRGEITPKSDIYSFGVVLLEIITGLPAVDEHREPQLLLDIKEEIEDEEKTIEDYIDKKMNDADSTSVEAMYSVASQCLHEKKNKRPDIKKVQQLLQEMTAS
Assay: IRAK4 enzyme activity inhibition (ADP-Glo, Promega kit)
Format: biochemical
Settings: for inhibition at 0.1 µM: test compound 0.1 uM; for inhibition at 1 µM: test compound 1 uM
Protocol: An experiment on IRAK4 enzyme activity inhibition of the compound of the present invention was conducted.
An IRAK4 enzyme kit (purchased from Promega, product number: V2621) was used to dilute a mixed solution between 0.1 µg/µL of myelin basic protein (MBP), which is an enzyme-reactive substrate, and 1.25 mM of ATP with a reaction buffer (40 mM Tris-HCl, pH 7.5; 20 mM MgCl2; 0.1 mg/mL BSA; 50 µM DTT) according to the instructions, so as to dispense 2 µL in a 384-well white plate, and then to add 1 µL of a test compound, which was gradient diluted starting from 1 mM, to a 384-well plate. After that, an IRAK4 enzyme was diluted with a reaction buffer to a final concentration of 5 ng/µL, then 2 µL/well was dispensed into a 384-well white plate and reacted at 37°C for 60 minutes. After completion of a reaction, an ADP-GloTM enzyme test kit (purchased from Promega, product number: V9102) was used to add 5 µL of ADP-Glo reaction reagent and cause a reaction at 37°C for 40 minutes, and then 10 µL of enzyme chromogenic reagent was added again to measure a luminescence signal using equipment for measuring absorbance (THECAN, Microplate Reader). An activity inhibition rate was calculated from a measured value, and a 50% inhibition concentration (IC50 value) was analyzed through a non-linear regression analysis based on the % inhibition for each concentration of the test compound, and is shown in Table 2.

inhibition at 0.1 µM [%]	inhibition at 1 µM [%]	IC50 [nM]	SMILES
42.1	67.4	–	CC(C)(O)CCn1cc2cc(NC(=O)c3cccc([N+](=O)[O-])c3)c(-c3ccoc3)cc2n1 [Example 4, N-(6-(furan-3-yl)-2-(3-hydroxy-3-methylbutyl)-2H-indazol-5-yl)-3-nitrobenzamide]
27.9	35.4	–	CC(C)(O)CCn1cc2cc(NC(=O)c3cncc([N+](=O)[O-])c3)c(-c3ccoc3)cc2n1 [Example 5, N-(6-(furan-3-yl)-2-(3-hydroxy-3-methylbutyl)-2H-indazol-5-yl)-5-nitronicotinamide]
35.5	67	–	CC(C)(O)CCn1cc2cc(NC(=O)c3cccc(C(N)=O)c3)c(-c3ccoc3)cc2n1 [Example 6, N-(6-(furan-3-yl)-2-(3-hydroxy-3-methylbutyl)-2H-indazol-5-yl)isophthalamide]
28.1	57.7	–	CC(C)(O)CCn1cc2cc(NC(=O)c3cncc([N+](=O)[O-])c3)c(-c3ccsc3)cc2n1 [Example 7, N-(2-(3-hydroxy-3-methylbutyl)-6-(thiophen-3-yl)-2H-indazol-5-yl)-5-nitronicotinamide]
21.7	50.3	–	CC(C)(O)CCn1cc2cc(NC(=O)c3cccc([N+](=O)[O-])c3)c(-c3ccsc3)cc2n1 [Example 8, N-(2-(3-hydroxy-3-methylbutyl)-6-(thiophen-3-yl)-2H-indazol-5-yl)-3-nitrobenzamide]
56.9	79.5	–	O=C(Nc1cc2cn(CCN3CCCCC3)nc2cc1N1CCOCC1)c1cccc([N+](=O)[O-])c1 [Example 9, N-(6-morpholino-2-(2-(piperidin-1-yl)ethyl)-2H-indazol-5-yl)-3-nitrobenzamide]
49.5	83.4	99.7	CN(C)CCn1cc2cc(NC(=O)c3cccc([N+](=O)[O-])c3)c(N3CCOCC3)cc2n1 [Example 10, N-(2-(2-(dimethylamino)ethyl)-6-morpholino-2H-indazol-5-yl)-3-nitrobenzamide]
40.4	56.9	–	COCCn1cc2cc(NC(=O)c3cccc([N+](=O)[O-])c3)c(N3CCOCC3)cc2n1 [Example 11, N-(2-(2-methoxyethyl)-6-morpholino-2H-indazol-5-yl)-3-nitrobenzamide]
31.5	–	–	CN(C)CCn1cc2cc(NC(=O)c3cccc(-c4nccs4)c3)c(-c3ccsc3)cc2n1 [Example 12, N-(2-(2-(dimethylamino)ethyl)-6-(thiophen-3-yl)-2H-indazol-5-yl)-3-(thiazol-2-yl)benzamide]
65.1	–	–	CC(C)(O)CCn1cc2cc(NC(=O)c3cccc(S(N)(=O)=O)c3)c(-c3ccc(C(=O)NCC(F)(F)F)cc3)cc2n1 [Example 42, N-(2-(3-hydroxy-3-methylbutyl)-6-(4-((2,2,2-trifluoroethyl)carbamoyl)phenyl)-2H-indazol-5-yl)-3-sulfamoylbenzamide]
61.9	–	–	CONC(=O)c1ccc(-c2cc3nn(CCC(C)(C)O)cc3cc2NC(=O)c2cccc(S(N)(=O)=O)c2)cc1 [Example 44, N-(2-(3-hydroxy-3-methylbutyl)-6-(4-(methoxycarbamoyl)phenyl)-2H-indazol-5-yl)-3-sulfamoylbenzamide]

From patent publication EP4737451A1 (Dong Wha Pharm. Co., Ltd., priority 2023, dated 2025)
